Laboratory results from US9028858B2 (Coloplast A/S, priority 2003, dated 2015).
Where two headings read alike, the source gives them in different places.

Tested on: 7 different bacterial strains
Settings: mid-log phase, absorbance at 600 nm, 7 strains pooled
Description: The obtained data from each specific bacterial strain were pooled.

OO [Std H2O2, hydrogen peroxide]
bacterial growth, Mean (% of control) (0.00000256% hydrogen peroxide): 110.0 % of control | bacterial growth, Mean (% of control) (0.0000128% hydrogen peroxide): 99.8 % of control | bacterial growth, Mean (% of control) (0.000064% hydrogen peroxide): 97.9 % of control | bacterial growth, Mean (% of control) (0.000320% hydrogen peroxide): 96.2 % of control | bacterial growth, Mean (% of control) (0.0016% hydrogen peroxide): 87.3 % of control | bacterial growth, Mean (% of control) (0.008% hydrogen peroxide): 63.0 % of control | bacterial growth, Mean (% of control) (0.04% hydrogen peroxide): 35.6 % of control | bacterial growth, Mean (% of control) (0.2% hydrogen peroxide): 16.0 % of control | bacterial growth, Mean (% of control) (1.0% hydrogen peroxide): 11.7 % of control
